Each structure is given as a SMILES string. pKi: −log10 of the molar value.

This assay concerns the target T1, human PR (progesterone receptor) (Homo sapiens, UniProt P06401).
T1 construct: expressed in transfected cells; host or cells: HEK293 (293-PR lysate)
T1 sequence (P06401 1-933): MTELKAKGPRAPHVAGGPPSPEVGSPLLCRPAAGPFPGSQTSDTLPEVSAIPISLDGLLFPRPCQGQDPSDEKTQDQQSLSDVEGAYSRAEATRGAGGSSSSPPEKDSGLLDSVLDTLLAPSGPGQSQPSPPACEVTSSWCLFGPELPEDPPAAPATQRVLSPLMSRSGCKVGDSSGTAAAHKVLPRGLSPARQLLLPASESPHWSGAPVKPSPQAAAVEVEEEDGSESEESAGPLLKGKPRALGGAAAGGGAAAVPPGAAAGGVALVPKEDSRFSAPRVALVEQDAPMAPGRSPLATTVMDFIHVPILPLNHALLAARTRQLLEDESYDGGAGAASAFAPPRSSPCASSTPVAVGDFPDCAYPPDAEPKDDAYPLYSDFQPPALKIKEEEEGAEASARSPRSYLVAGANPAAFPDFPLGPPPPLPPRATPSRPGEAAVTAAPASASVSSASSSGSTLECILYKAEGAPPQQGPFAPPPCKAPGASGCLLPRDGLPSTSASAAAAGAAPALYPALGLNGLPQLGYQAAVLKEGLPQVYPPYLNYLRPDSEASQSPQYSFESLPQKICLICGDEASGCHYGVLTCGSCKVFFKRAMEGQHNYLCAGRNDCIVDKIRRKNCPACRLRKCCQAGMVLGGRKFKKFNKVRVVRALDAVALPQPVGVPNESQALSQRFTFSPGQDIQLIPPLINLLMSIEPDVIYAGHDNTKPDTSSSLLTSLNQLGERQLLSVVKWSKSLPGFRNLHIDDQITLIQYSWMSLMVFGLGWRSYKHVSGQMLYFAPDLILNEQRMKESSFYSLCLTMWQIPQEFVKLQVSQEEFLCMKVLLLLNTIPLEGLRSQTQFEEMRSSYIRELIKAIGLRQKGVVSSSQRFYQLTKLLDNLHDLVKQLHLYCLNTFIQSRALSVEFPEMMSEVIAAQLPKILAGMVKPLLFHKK
The assay is described as follows: Steroid nuclear hormone receptor binding assay, PR. As to conditions: [3H]-methyltrienolone, HEK293 lysate overexpressing human PR. On the procedure:
Cell lysates from human embryonic kidney HEK293 cells overexpressing human MR (mineralocorticoid receptor), GR (glucocorticoid receptor), AR (androgen receptor), or PR (progesterone receptor) are used for receptor-ligand competition binding assays to determine Ki values.
Briefly, steroid receptor competition binding assays are run in a buffer containing 20 mM HEPES buffer (pH=7.6), 0.2 mM EDTA, 75 mM NaCl, 1.5 mM MgCl2, 20% glycerol, 20 mM sodium molybdate, 0.2 mM DTT (dithiothreitol), 20 μg/mL aprotinin and 20 μg/mL leupeptin (assay buffer). Typically, steroid receptor binding assays include radio-labeled ligands, such as 0.25 nM [^3H]-aldosterone for MR binding, 0.7 nM [^3H]-dexamethasone for GR binding, 0.36 nM [^3H]-methyltrienolone for AR binding, and 0.29 nM [^3H]-methyltrienolone for PR binding, and either 20 μg 293-MR lysate, 20 μg 293-GR lysate, 22 μg 293-AR lysate, or 40 μg 293-PR lysate per well. Assays are typically run in 96-well format. Competing test compounds are added at various concentrations ranging from about 0.01 nM to 10 μM. Non-specific binding is determined in the presence of 500 nM aldosterone for MR binding, 500 nM dexamethasone for GR binding, or 500 nM methyltrienolone for AR and PR binding. […] After an incubation of 2 hours, plates are read in a Wallac Microbeta counter. […]

As to `O=c1[nH]c2cc(/C=C3\c4ccccc4COc4cc(F)ccc43)ccc2n1[C@@H]1C[C@@H]2COCCN2C1` [Compound (I), 5-((E)-(3-fluorodibenzo[b,e]oxepin-11(6H)-ylidene)methyl)-1-((7R,8aR)-hexahydro-1H-pyrrolo[2,1-c][1,4]oxazin-7-yl)-1H-benzo[d]imidazol-2(3H)-one], the pKi (usually the Ki on a negative log10 scale, so that one unit is a factor of ten) was approximately 6.32.

(Values after patent US8658638B2, “Mineralocorticoid receptor antagonist and methods of use” (priority 2009, dated 2014).)
